Test results from US12319672B2, “Alpha-D-galactopyranoside derivatives” (Idorsia Pharmaceuticals Ltd, priority 2019, dated 2025).
pIC50: −log10 of the molar value.

Tests used:
human Gal-1 (hGal-1) = experiment: Competitive binding assay: binding of biotinylated hGal-1 to microplate-adsorbed asialofetuin (ASF); conditions: Activities on hGal-1; mean values of several measurements
Summary of the method: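 Spectrophotometric readout (streptavidin-peroxidase, ABTS) of biotinylated galectin retained on ASF-coated wells. Biotinylated hGal-1 or hGal-3, 300-1000 ng/mL, co-incubated with test compound 3 h at 4° C, then washed. Mean IC50 from repeat runs.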

human Gal-3 (hGal-3) = human Gal-3 (hGal-3) (Homo sapiens (Human), UniProt P17931); experiment: Competitive binding assay: binding of biotinylated hGal-3 to microplate-adsorbed asialofetuin (ASF); conditions: Activity on hGal-3; mean values of several measurements
Summary of the method: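 For hGal-1, a variant with all six cysteines replaced by serines is preferred. Either galectin, biotinylated at 300-1000 ng/mL, competes with compound for microplate-bound ASF over 3 h at 4° C; peroxidase/ABTS detection gives IC50, averaged.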

human Gal-3 (hGal-3), sequence (P17931 whole entry): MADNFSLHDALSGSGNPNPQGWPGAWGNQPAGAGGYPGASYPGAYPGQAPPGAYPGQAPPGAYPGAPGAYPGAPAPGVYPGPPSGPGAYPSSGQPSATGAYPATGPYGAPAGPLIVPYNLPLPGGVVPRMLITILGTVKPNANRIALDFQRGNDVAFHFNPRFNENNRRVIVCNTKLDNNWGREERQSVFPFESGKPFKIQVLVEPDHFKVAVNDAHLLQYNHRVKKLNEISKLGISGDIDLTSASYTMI
human Gal-1 (hGal-1), sequence (P09382 2-135 limits assumed): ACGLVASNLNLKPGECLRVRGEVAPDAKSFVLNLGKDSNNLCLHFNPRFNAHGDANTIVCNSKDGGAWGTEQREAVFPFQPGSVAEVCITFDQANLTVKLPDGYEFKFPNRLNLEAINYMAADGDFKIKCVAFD

| SMILES | pIC50 (human Gal-1 (hGal-1)) | pIC50 (human Gal-3 (hGal-3)) |
| --- | --- | --- |
| CO[C@@H]1[C@@H](n2cc(-c3cc(F)c(F)c(F)c3)nn2)[C@@H](O)[C@@H](CO)O[C@@H]1CC1CN(C2CCCCC2)C(=O)O1 (mixture of isomers) [Example 5.23, (RS)-3-cyclohexyl-5-(((2R,3R,4S,5R,6R)-5-hydroxy-6-(hydroxymethyl)-3-methoxy-4-(4-(3,4,5-trifluorophenyl)-1H-1,2,3-triazol-1-yl)tetrahydro-2H-pyran-2-yl)methyl)oxazolidin-2-one] | 5.17 | 6.85 |
| CO[C@@H]1[C@@H](n2cc(-c3cc(F)c(F)c(F)c3)nn2)[C@@H](O)[C@@H](CO)O[C@@H]1Cc1cc(C2CCN(C(C)=O)C2)on1 (mixture of isomers) [Example 2.09] | 5.08 | 6.18 |
| CC(=O)O[C@@H]1[C@@H](n2cc(-c3cc(F)c(F)c(F)c3)nn2)[C@@H](O)[C@@H](CO)O[C@@H]1CC1CC(C2CCNCC2)=NO1 (mixture of isomers) [Example 3.14, (2R,3R,4S,5R,6R)-5-hydroxy-6-(hydroxymethyl)-2-(((RS)-3-(piperidin-4-yl)-4,5-dihydroisoxazol-5-yl)methyl)-4-(4-(3,4,5-trifluorophenyl)-1H-1,2,3-triazol-1-yl)tetrahydro-2H-pyran-3-yl acetate] | 5.16 | 6.49 |
| COC1CCC(N2C[C@@H](C[C@H]3O[C@H](CO)[C@H](O)[C@H](n4cc(-c5cc(F)c(F)c(F)c5)nn4)[C@H]3OC)OC2=O)CC1 (mixture of isomers) [Example 5.25, (RS)-5-(((2R,3R,4S,5R,6R)-5-hydroxy-6-(hydroxymethyl)-3-methoxy-4-(4-(3,4,5-trifluorophenyl)-1H-1,2,3-triazol-1-yl)tetrahydro-2H-pyran-2-yl)methyl)-3-((1r,4R)-4-methoxycyclohexyl)oxazolidin-2-one] | 4.90 | 6.13 |
| COC1CCC(N2C[C@H](C[C@H]3O[C@H](CO)[C@H](O)[C@H](n4cc(-c5cc(F)c(F)c(F)c5)nn4)[C@H]3OC)OC2=O)CC1 (mixture of isomers) [Example 5.26, (RS)-5-(((2R,3R,4S,5R,6R)-5-hydroxy-6-(hydroxymethyl)-3-methoxy-4-(4-(3,4,5-trifluorophenyl)-1H-1,2,3-triazol-1-yl)tetrahydro-2H-pyran-2-yl)methyl)-3-((1s,4S)-4-methoxycyclohexyl)oxazolidin-2-one] | 4.93 | 5.91 |
| COc1ccc(C2=NOC(C[C@H]3O[C@H](CO)[C@H](O)[C@H](n4cc(-c5cc(F)c(F)c(F)c5)nn4)[C@H]3O)C2)cc1 (stereo partly drawn) [Ex 1.02] | 4.27 | 6.31 |
| COc1ccc(C2=NO[C@@H](C[C@H]3O[C@H](CO)[C@H](O)[C@H](n4cc(-c5cc(F)c(F)c(F)c5)nn4)[C@H]3O)C2)cc1 [Ex 1.04] | < 4.00 | 6.24 |
| OC[C@H]1O[C@H](CC2CC(C3CCCCC3)=NO2)[C@H](O)[C@@H](n2cc(-c3cc(F)c(F)c(F)c3)nn2)[C@H]1O (stereo partly drawn) [Ex 1.05] | 5.14 | 6.32 |
| OC[C@H]1O[C@H](C[C@H]2CC(C3CCCCC3)=NO2)[C@H](O)[C@@H](n2cc(-c3cc(F)c(F)c(F)c3)nn2)[C@H]1O [Ex 1.06] | 4.65 | 5.74 |
| CO[C@@H]1[C@@H](n2cc(-c3cc(F)c(F)c(F)c3)nn2)[C@@H](O)[C@@H](CO)O[C@@H]1CC1CC(C2CCCCC2)=NO1 (stereo partly drawn) [Ex 1.08] | 5.06 | 5.97 |
| CO[C@@H]1[C@@H](n2cc(-c3cc(F)c(F)c(F)c3)nn2)[C@@H](O)[C@@H](CO)O[C@@H]1C[C@H]1CC(C2CCCCC2)=NO1 [Ex 1.09] | 4.56 | 5.67 |
| OC[C@H]1O[C@H](CC2CC(c3ccncc3)=NO2)[C@H](O)[C@@H](n2cc(-c3cc(F)c(F)c(F)c3)nn2)[C@H]1O (stereo partly drawn) [Ex 1.16] | 5.18 | 6.37 |
| CO[C@@H]1[C@@H](n2cc(-c3cc(F)c(F)c(F)c3)nn2)[C@@H](O)[C@@H](CO)O[C@@H]1CC1CC(c2ccncc2)=NO1 (stereo partly drawn) [Ex 1.17] | 5.06 | 6.15 |
| OC[C@H]1O[C@H](CC2CC(c3cccc(Cl)c3)=NO2)[C@H](O)[C@@H](n2cc(-c3cc(F)c(F)c(F)c3)nn2)[C@H]1O (stereo partly drawn) [Ex 1.18] | 4.85 | 6.01 |
| COc1ccc(C2=NOC(C[C@H]3O[C@H](CO)[C@H](O)[C@H](n4cc(-c5cc(F)c(F)c(F)c5)nn4)[C@H]3O)C2)cn1 (stereo partly drawn) [Ex 1.23] | 5.17 | 6.15 |
| COc1cc(C2=NOC(C[C@H]3O[C@H](CO)[C@H](O)[C@H](n4cc(-c5cc(F)c(F)c(F)c5)nn4)[C@H]3O)C2)ccn1 (stereo partly drawn) [Ex 1.24] | 4.88 | 6.10 |
| OC[C@H]1O[C@H](CC2CC(c3ccc4[nH]cnc4c3)=NO2)[C@H](O)[C@@H](n2cc(-c3cc(F)c(F)c(F)c3)nn2)[C@H]1O (stereo partly drawn) [Ex 1.26] | 4.76 | 5.94 |
| OC[C@H]1O[C@H](CC2CC(c3cn[nH]c3)=NO2)[C@H](O)[C@@H](n2cc(-c3cc(F)c(F)c(F)c3)nn2)[C@H]1O (stereo partly drawn) [Ex 1.27] | 5.18 | 6.39 |
| Cn1c(=O)[nH]c2cc(C3=NOC(C[C@H]4O[C@H](CO)[C@H](O)[C@H](n5cc(-c6cc(F)c(F)c(F)c6)nn5)[C@H]4O)C3)ccc21 (stereo partly drawn) [Ex 1.28] | 4.72 | 6.33 |
| CO[C@@H]1[C@@H](n2cc(-c3cc(F)c(F)c(F)c3)nn2)[C@@H](O)[C@@H](CO)O[C@@H]1C[C@H]1CC(c2ccc3[nH]c(=O)oc3c2)=NO1 [Ex 1.29] | < 4.00 | 5.67 |

Now those with a higher pIC50 (human Gal-1 (hGal-1)), led by results:

| pIC50 (human Gal-1 (hGal-1)) | pIC50 (human Gal-3 (hGal-3)) | SMILES |
| --- | --- | --- |
| 5.20 | 5.95 | COc1ccc(C2=NOC(C[C@H]3O[C@H](CO)[C@H](O)[C@H](n4cc(-c5cc(F)c(F)c(F)c5)nn4)[C@H]3O)C2)c(Cl)c1 (stereo partly drawn) [Ex 1.13] |
| 5.25 | 6.29 | OC[C@H]1O[C@H](CC2CC(C3CCCC3)=NO2)[C@H](O)[C@@H](n2cc(-c3cc(F)c(F)c(F)c3)nn2)[C@H]1O (stereo partly drawn) [Ex 1.11] |
| 5.25 | 6.28 | CO[C@@H]1[C@@H](n2cc(-c3cc(F)c(F)c(F)c3)nn2)[C@@H](O)[C@@H](CO)O[C@@H]1CC1CC(C2CCOCC2)=NO1 (stereo partly drawn) [Ex 1.19] |
| 5.26 | 6.51 | COc1ccc(C2=NO[C@H](C[C@H]3O[C@H](CO)[C@H](O)[C@H](n4cc(-c5cc(F)c(F)c(F)c5)nn4)[C@H]3O)C2)cc1 [Ex 1.03] |
| 5.27 | 6.25 | CO[C@@H]1[C@@H](n2cc(-c3cc(F)c(F)c(F)c3)nn2)[C@@H](O)[C@@H](CO)O[C@@H]1C[C@@H]1CC(C2CCCCC2)=NO1 [Ex 1.10] |
| 5.29 | 6.60 | O=c1ccc(C2=NOC(C[C@H]3O[C@H](CO)[C@H](O)[C@H](n4cc(-c5cc(F)c(F)c(F)c5)nn4)[C@H]3O)C2)c[nH]1 (mixture of isomers) [Example 2.02] |
| 5.30 | 6.17 | COc1ccc(C2=NOC(C[C@H]3O[C@H](CO)[C@H](O)[C@H](n4cc(-c5cc(F)c(F)c(F)c5)nn4)[C@H]3O)C2)cc1O (stereo partly drawn) [Ex 1.25] |
| 5.31 | 6.28 | OC[C@H]1O[C@H](C[C@@H]2CC(C3CCCCC3)=NO2)[C@H](O)[C@@H](n2cc(-c3cc(F)c(F)c(F)c3)nn2)[C@H]1O [Ex 1.07] |
| 5.32 | 6.82 | O=c1[nH]c2ccc(C3=NOC(C[C@H]4O[C@H](CO)[C@H](O)[C@H](n5cc(-c6cc(F)c(F)c(F)c6)nn5)[C@H]4O)C3)cc2o1 (stereo partly drawn) [Ex 1.21] |
| 5.35 | 6.37 | OC[C@H]1O[C@H](CC2CC(C3CCOCC3)=NO2)[C@H](O)[C@@H](n2cc(-c3cc(F)c(F)c(F)c3)nn2)[C@H]1O (stereo partly drawn) [Ex 1.22] |
| 5.35 | 6.35 | CO[C@@H]1[C@@H](n2cc(-c3cc(F)c(F)c(F)c3)nn2)[C@@H](O)[C@@H](CO)O[C@@H]1Cc1cc(C2(O)CCCN(C(C)=O)CC2)on1 (mixture of isomers) [Example 2.10] |
| 5.37 | 6.62 | CO[C@@H]1[C@@H](n2cc(-c3cc(F)c(F)c(F)c3)nn2)[C@@H](O)[C@@H](CO)O[C@@H]1CC1CC(c2ccc3[nH]c(=O)oc3c2)=NO1 (stereo partly drawn) [Ex 1.20] |
| 5.45 | 6.17 | CO[C@@H]1[C@@H](n2cc(-c3cc(F)c(F)c(F)c3)nn2)[C@@H](O)[C@@H](CO)O[C@@H]1CC1CC(C2CCCC2)=NO1 (stereo partly drawn) [Ex 1.12] |
| 5.49 | 6.19 | CO[C@@H]1[C@@H](n2cc(-c3cc(F)c(F)c(F)c3)nn2)[C@@H](O)[C@@H](CO)O[C@@H]1CC1CC(c2cncnc2)=NO1 (stereo partly drawn) [Ex 1.15] |
| 5.51 | 6.48 | CO[C@@H]1[C@@H](n2cc(-c3cc(F)c(F)c(F)c3)nn2)[C@@H](O)[C@@H](CO)O[C@@H]1C[C@@H]1CC(c2ccc3[nH]c(=O)oc3c2)=NO1 [Ex 1.30] |
| 5.64 | 6.17 | OC[C@H]1O[C@H](CC2CC(c3cncnc3)=NO2)[C@H](O)[C@@H](n2cc(-c3cc(F)c(F)c(F)c3)nn2)[C@H]1O (stereo partly drawn) [Ex 1.14] |
| 5.74 | 6.54 | CO[C@@H]1[C@@H](n2cc(-c3cc(F)c(F)c(F)c3)nn2)[C@@H](O)[C@@H](CO)O[C@@H]1CN1CC(C2CCN(C(=O)OC(C)(C)C)CC2)OC1=O (mixture of isomers) [Example 5.24, tert-butyl 4-((RS)-3-(((2R,3R,4S,5R,6R)-5-hydroxy-6-(hydroxymethyl)-3-methoxy-4-(4-(3,4,5-trifluorophenyl)-1H-1,2,3-triazol-1-yl)tetrahydro-2H-pyran-2-yl)methyl)-2-oxooxazolidin-5-yl)piperidine-1-carboxylate] |
| 6.26 | 6.52 | O=c1cc(C2=NOC(C[C@H]3O[C@H](CO)[C@H](O)[C@H](n4cc(-c5cc(F)c(F)c(F)c5)nn4)[C@H]3O)C2)cc[nH]1 (mixture of isomers) [Example 2.03] |
| 6.59 | 6.62 | CO[C@@H]1[C@@H](n2cc(-c3cc(F)c(F)c(F)c3)nn2)[C@@H](O)[C@@H](CO)O[C@@H]1CC1CC(c2cc[nH]c(=O)c2)=NO1 (mixture of isomers) [Example 2.06] |
